Source: US5824647A, “Chemotactic wound healing peptides” (priority 1995, dated 1998)

How the values were obtained:
[1] = system: infant foreskin fibroblasts; experiment: Fibroblast proliferation, [3H]thymidine incorporation; type: cell-based; settings: [3H]thymidine pulse after 72 h, harvest 24 h later; positive control human recombinant TGF-β1 (25 ng/ml)
Procedure: The peptides of the invention were also found to induce fibroblast proliferation in vitro. Fibroblast proliferation was measured in low passaged (fewer than 8) fibroblast cultures. Fibroblasts were added at low density (20,000 cells/well) to Falcon 3047 multiwell plates in maintenance medium. After incubation at 37° C. in a humidified atmosphere containing 5% CO2 for 16 h, the medium was removed from each well and replaced with 450 μl serum-free maintenance medium containing 0.1% BSA and 50 μl aliquots of sterilized test sample. Each sample being tested for mitogenic activity was added to triplicate wells. […] After 15 min. of repeated agitation of each multi-well plate, a 250 μl aliquot from each well was transferred to scintillation vials containing Bio-Safe II (Research Products International Corp., Mt. Prospect, Ill.), cooled for 4 h, and counted in a scintillation counter. Fibroblast proliferation was expressed as "Mean CPM±SEM" per well of the replicates. […]
Fibroblast proliferation experiments in response to the 7-mer peptides (peptides 368-374) were carried out as generally described above. […] All cultures were performed in triplicate and results were expressed as the means of triplicate values as counts per minute (CPM) per well. […]

[2] = system: infant foreskin fibroblasts; experiment: Collagen production by fibroblasts (modified Peterofsky-Diegelman assay); type: cell-based, human; settings: [3H]proline incorporation into collagenase-sensitive protein
[3] = system: fibroblasts, monocytes and neutrophils; experiment: Chemotaxis assays expressed as Migration Index (cell type not separated); type: cell-based, human; settings: cells migrating in response to peptide divided by cells migrating in response to medium; positive chemotactic control
Description: The peptides of the invention induce chemotaxis of fibroblasts and inflammatory cells (neutrophils and monocytes/macro-phages) in in vitro assays. Assays for measuring chemotaxis induced by the peptides can utilize either fibroblasts or monocytes. The following sets forth a representative assay for measuring fibroblast chemotaxis induced by the peptides of the invention:
Peptides 280-293, 296-322, 328-354, 358-382 (SEQ ID NO. 16), 366-387 (SEQ ID NO. 11), 364-378 (SEQ ID NO. 6) and 368-374 (SEQ ID NO. 1) of Table I, whose sequences correspond to the designated regions of TGF-β1 were tested in chemotaxis assays for the ability to induce migration of fibroblasts, monocytes and neutrophils. The peptides were added to the lower compartments of modified Boyden chambers at the indicated concentration.
Because the peptides were tested in different experiments, migration was expressed as "Migration Index" which is obtained by dividing the number of cells migrating in response to medium into the number of cells migrating in response to each peptide. A positive chemotactic control, peptide 340-391 gave migration indices between 7-11.

## VYYVGRK [Peptide 368-374, 7-mer corresponding to amino acids 368-374 of TGF-β1]
[1]
  fibroblast proliferation / growth (in words): most effective in inducing fibroblast growth, exceeding that obtained with human recombinant TGF-β1
[2]
  collagen production by fibroblasts (in words): being the most potent
[2]; listed as VYYVGRKK
  collagen production by fibroblasts (in words): stimulated collagen production to some degree

## 340-391: synthetic peptide corresponding to sequence 340-391 of TGF-β1; positive chemotactic control (VLALYNQHNPGASAAPCCVPQALEPLPIVYYVGRKPKVEQLSNMIVRSCKCS; printed: Val Leu Ala Leu Tyr Asn Gln His Asn Pro Gly Ala Ser Ala Ala Pro Cys Cys Val Pro Gln Ala Leu Glu Pro Leu Pro Ile Val Tyr Tyr Val Gly Arg Lys Pro Lys Val Glu Gln Leu Ser Asn Met Ile Val Arg Ser Cys Lys Cys Ser) [Peptide 340-391]
[3]
  Migration Index: 7-11
